The test concerns the target T1, human PAH with the R408W mutation (Homo sapiens, UniProt P00439, R408W).
T1 construct: expressed in transfected cells
T1 sequence (P00439 1-452 R408W): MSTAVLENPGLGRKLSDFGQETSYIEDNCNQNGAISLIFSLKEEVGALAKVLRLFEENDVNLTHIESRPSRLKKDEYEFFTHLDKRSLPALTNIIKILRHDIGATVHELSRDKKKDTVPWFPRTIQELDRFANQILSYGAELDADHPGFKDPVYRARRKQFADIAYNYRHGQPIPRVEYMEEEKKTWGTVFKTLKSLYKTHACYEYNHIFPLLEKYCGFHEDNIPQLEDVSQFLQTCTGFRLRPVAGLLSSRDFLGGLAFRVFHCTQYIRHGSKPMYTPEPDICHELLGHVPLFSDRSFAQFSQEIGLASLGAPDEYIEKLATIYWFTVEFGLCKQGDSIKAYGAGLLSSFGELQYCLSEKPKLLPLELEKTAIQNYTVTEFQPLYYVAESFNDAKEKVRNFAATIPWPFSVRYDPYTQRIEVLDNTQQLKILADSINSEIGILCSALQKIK
The test is described as follows: Cell Based Phenylalanine Flux Assay. The settings on record: A375 cells expressing human R408W PAH; 24 hrs compound incubation; 13C-Tyrosine by LC-MS; average where tested multiple times; read-out: AC50.

As usually defined, the AC50 is the concentration at which the activity in the assay is half-maximal.

Turning to `O=C(C1CCC1)N1CCc2[nH]cnc2[C@@H]1c1nc2ccccc2s1` [Example 1154, (R)-(4-(benzo[d]thiazol-2-yl)-6,7-dihydro-1H-imidazo[4,5-c]pyridin-5(4H)-yl)(cyclobutyl)methanone], the concentration at half-maximal activity (AC50) was over 5 µM.

(Values after US20250171438A1 (Agios Pharmaceuticals, Inc., priority 2022, published 2025).)
